In patent EP4722213A1, “NITROGEN-CONTAINING FUNCTIONAL GROUP-SUBSTITUTED PYRIDAZINOPYRIDONE DERIVATIVE AND USE THEREOF” (Sichuan Huiyu Pharmaceutical Co., Ltd., priority 2023, dated 2024):
Where a name gives a salt, the structure may show the parent alone.

What follows are compounds tested against T1, SOS1 (Homo sapiens, UniProt Q07889) (assay: biochemical).
T1 sequence (Q07889 1-1333): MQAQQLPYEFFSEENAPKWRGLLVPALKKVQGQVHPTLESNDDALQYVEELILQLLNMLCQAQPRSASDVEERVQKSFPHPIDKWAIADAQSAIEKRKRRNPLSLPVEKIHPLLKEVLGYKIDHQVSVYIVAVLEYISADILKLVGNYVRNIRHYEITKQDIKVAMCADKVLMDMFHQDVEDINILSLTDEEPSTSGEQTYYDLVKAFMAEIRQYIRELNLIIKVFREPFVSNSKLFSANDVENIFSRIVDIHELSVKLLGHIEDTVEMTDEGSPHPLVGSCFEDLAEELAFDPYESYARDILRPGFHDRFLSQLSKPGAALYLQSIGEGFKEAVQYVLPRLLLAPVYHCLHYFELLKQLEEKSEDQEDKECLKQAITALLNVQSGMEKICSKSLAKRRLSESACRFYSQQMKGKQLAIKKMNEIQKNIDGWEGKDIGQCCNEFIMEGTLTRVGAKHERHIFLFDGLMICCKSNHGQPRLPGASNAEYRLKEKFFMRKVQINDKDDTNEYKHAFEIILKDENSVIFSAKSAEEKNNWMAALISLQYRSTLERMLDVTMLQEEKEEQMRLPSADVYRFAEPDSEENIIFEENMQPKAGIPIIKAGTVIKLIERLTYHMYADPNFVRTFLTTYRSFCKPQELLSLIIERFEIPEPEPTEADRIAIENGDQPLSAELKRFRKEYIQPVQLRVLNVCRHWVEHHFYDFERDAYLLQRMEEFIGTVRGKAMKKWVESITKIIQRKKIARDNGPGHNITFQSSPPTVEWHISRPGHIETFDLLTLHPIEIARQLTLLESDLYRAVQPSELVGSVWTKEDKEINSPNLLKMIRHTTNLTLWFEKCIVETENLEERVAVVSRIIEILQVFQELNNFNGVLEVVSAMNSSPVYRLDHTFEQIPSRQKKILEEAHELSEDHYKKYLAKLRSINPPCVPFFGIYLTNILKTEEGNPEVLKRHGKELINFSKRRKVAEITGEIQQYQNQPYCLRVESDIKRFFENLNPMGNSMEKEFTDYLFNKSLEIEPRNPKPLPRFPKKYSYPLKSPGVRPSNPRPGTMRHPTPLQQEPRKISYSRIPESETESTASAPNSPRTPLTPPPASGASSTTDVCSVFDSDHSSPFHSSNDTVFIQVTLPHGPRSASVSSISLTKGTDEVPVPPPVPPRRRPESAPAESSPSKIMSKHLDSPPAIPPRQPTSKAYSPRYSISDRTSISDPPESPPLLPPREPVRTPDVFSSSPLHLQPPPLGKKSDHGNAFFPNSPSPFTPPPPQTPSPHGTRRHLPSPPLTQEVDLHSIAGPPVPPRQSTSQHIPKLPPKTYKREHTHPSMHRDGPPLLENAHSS

Structure (SMILES) | IC50 [nM]
Cc1c([C@@H](C)Nc2nnc(N3CCC(F)(F)CC3)c3cc(=O)n(C4(C)CC4)cc23)cccc1C(F)(F)F [Example 65, (R)-1-(4,4-difluoropiperidin-1-yl)-4-((1-(2-methyl-3-(trifluoromethyl)phenyl)ethyl)amino)-6-(1-methylcyclopropyl) pyrido[3,4-d]pyridazin-7(6H)-one] | 61
C[C@@H](Nc1nnc(N2CCCC2)c2cc(=O)n(C3CC3)cc12)c1cccc(C(F)F)c1F [Example 4, (R)-6-cyclopropyl-4-((1-(3-(difluoromethyl)-2-fluorophenyl)ethyl)amino)-1-(pyrrolidin-1-yl) pyrido[3,4-d]pyridazin-7(6H)-one] | 4.9
C[C@@H](Nc1nnc(N2CC3C(C2)C3(C)C)c2cc(=O)n(C3(C)CC3)cc12)c1cccc(C(F)F)c1F (stereo partly drawn) [Example 189, 4-(((R)-1-(3-(difluoromethyl)-2-fluorophenyl)ethyl)amino)-1-(6,6-dimethyl-3-azabicyclo[3.1.0]hexan-3-yl)-6-(1-methylcyclopropyl) pyrido[3,4-d]pyridazin-7(6H)-one] | 4.3
C[C@@H](Nc1nnc(N2CCC[C@@H]2CO)c2cc(=O)n(C3(C)CC3)cc12)c1cccc(C(F)F)c1F [Example 139, 4-(((R)-1-(3-(difluoromethyl)-2-fluorophenyl)ethyl)amino)-1-((R)-2-(hydroxymethyl)pyrrolidin-1-yl)-6-(1-methylcyclopropyl) pyrido[3,4-d]pyridazin-7(6H)-one] | 6.2
C[C@@H](Nc1nnc(-n2cccn2)c2cc(=O)n(C3(C)CC3)cc12)c1cccc(C(F)F)c1F [Example 33, (R)-4-((1-(3-(difluoromethyl)-2-fluorophenyl)ethyl)amino)-6-(1-methylcyclopropyl)-1-(1H-pyrazol-1-yl)pyrido[3,4-d]pyridazin-7(6H)-one] | 22.5
C[C@@H](Nc1nnc(N2CCN(C)CC2)c2cc(=O)n(C3CCOC3)cc12)c1cccc(C(F)F)c1F (stereo partly drawn) [Example 127, 4-(((R)-1-(3-(difluoromethyl)-2-fluorophenyl)ethyl)amino)-1-(4-methylpiperazin-1-yl)-6-(tetrahydrofuran-3-yl)pyrido[3,4-d]pyridazin-7(6H)-one] | 6.7
C[C@@H](Nc1nnc(N2CCN3CCCCC3C2)c2cc(=O)n(C3(C)CC3)cc12)c1cccc(C(F)F)c1F (stereo partly drawn) [Example 203, 4-(((R)-1-(3-(difluoromethyl)-2-fluorophenyl)ethyl)amino)-6-(1-methylcyclopropyl)-1-(octahydro-2H-pyrido[1,2-a]pyrazin-2-yl)pyrido[3,4-d]pyridazin-7(6H)-one] | 3.8
Cc1cc(N)cc([C@@H](C)Nc2nnc(N3CCN(C(C)C)CC3)c3cc(=O)n(C4CC4)cc23)c1F [Example 147, (R)-4-((1-(5-amino-2-fluoro-3-methylphenyl)ethyl)amino)-6-cyclopropyl-1-(4-isopropylpiperazin-1-yl)pyrido[3,4-d]pyridazin-7(6H)-one formate] | 6.3
Cc1c(C#N)cccc1[C@@H](C)Nc1nnc(N2CC3CC3C2)c2cc(=O)n(C3CC3)cc12 (stereo partly drawn) [Example 35, 3-((1R)-1-((1-(3-azabicyclo[3.1.0]hexan-3-yl)-6-cyclopropyl-7-oxo-6,7-dihydropyrido[3,4-d]pyridazin-4-yl)amino)ethyl)-2-methylbenzonitrile] | 14.8
C[C@@H](Nc1nnc(N2CCC3(C2)CS(=O)(=O)C3)c2cc(=O)n(C3(C)CC3)cc12)c1cccc(C(F)F)c1F [Example 197, (R)-4-((1-(3-(difluoromethyl)-2-fluorophenyl)ethyl)amino)-1-(2,2-dioxido-2-thia-6-azaspiro[3.4]octan-6-yl)-6-(1-methylcyclopropyl) pyrido[3,4-d]pyridazin-7(6H)-one] | 5
Cc1c([C@@H](C)Nc2nnc(N(C)C)c3cc(=O)n(C4(C)CC4)cc23)cccc1C(F)(F)F [Example 64, (R)-1-(dimethylamino)-4-((1-(2-methyl-3-(trifluoromethyl)phenyl)ethyl)amino)-6-(1-methylcyclopropyl) pyrido[3,4-d]pyridazin-7(6H)-one] | 10.7
C[C@@H](Nc1nnc(N2CCC(F)(F)CC2)c2cc(=O)n(C3CC3)cc12)c1cccc(C(F)F)c1F [Example 19, (R)-6-cyclopropyl-4-((1-(3-(difluoromethyl)-2-fluorophenyl)ethyl)amino)-1-(4,4-difluoropiperidin-1-yl)pyrido[3,4-d]pyridazin-7(6H)-one] | 27.2
Cc1c([C@@H](C)Nc2nnc(N(C)C)c3cc(=O)n(C4CC4)cc23)cccc1C(F)(F)F [Example 51, (R)-6-cyclopropyl-1-(dimethylamino)-4-((1-(2-methyl-3-(trifluoromethyl)phenyl)ethyl)amino)pyr ido[3,4-d]pyridazin-7(6H)-one] | 11.8
Cc1c(C#N)cccc1[C@@H](C)Nc1nnc(N2CCCC2)c2cc(=O)n(C3(C)CC3)cc12 [Example 45, (R)-2-methyl-3-(1-((6-(1-methylcyclopropyl)-7-oxo-1-(pyrrolidin-1-yl)-6,7-dihydropyrido[3,4-d]pyridazin-4-yl)amino)ethyl)benz onitrile] | 6.2
C[C@@H](Nc1nnc(N2CCC(F)(F)CC2)c2cc(=O)n(C3(C)CC3)cc12)c1cccc(C(F)F)c1F [Example 23, (R)-4-((1-(3-(difluoromethyl)-2-fluorophenyl)ethyl)amino)-1-(4,4-difluoropiperidin-1-yl)-6-(1-methylcyclopropyl) pyrido[3,4-d]pyridazin-7(6H)-one] | 22.4
C[C@@H](Nc1nnc(N2CCC(CO)C2)c2cc(=O)n(C3(C)CC3)cc12)c1cccc(C(F)(F)CO)c1 (stereo partly drawn) [Example 228, 4-(((R)-1-(3-(1,1-difluoro-2-hydroxyethyl)phenyl)ethyl)amino)-1-(3-(hydroxymethyl)pyrrolidin-1-yl)-6-(1-methylcyclopropyl) pyrido[3,4-d]pyridazin-7(6H)-one] | 4.4
C[C@@H](Nc1nnc(NC2CCN(C)CC2)c2cc(=O)n(C3(C)CC3)cc12)c1cccc(C(F)F)c1F [Example 123, (R)-4-((1-(3-(difluoromethyl)-2-fluorophenyl)ethyl)amino)-6-(1-methylcyclopropyl)-1-((1-methylpiperidin-4-yl)amino)pyrido[3,4-d]pyridazin-7(6H)-one formate] | 3.8
Cc1c([C@@H](C)Nc2nnc(N3CCN(CC4CC4)CC3)c3cc(=O)n(C4(C)CC4)cc23)cccc1C(F)(F)F [Example 93, (R)-1-(4-(cyclopropylmethyl)piperazin-1-yl)-4-((1-(2-methyl-3-(trifluoromethyl)phenyl)ethyl)amino)-6-(1-methylcyclopropyl) pyrido[3,4-d]pyridazin-7(6H)-one] | 5.4
Cc1c(C#N)cccc1[C@@H](C)Nc1nnc(N2CCN(CC3CC3)CC2)c2cc(=O)n(C3CC3)cc12 [Example 102, (R)-3-(1-((6-cyclopropyl-1-(4-(cyclopropylmethyl)piperazin-1-yl)-7-oxo-6,7-dihydropyrido[3,4-d]pyridazin-4-yl)amino)ethyl)-2-methylbenzonitrile] | 12.5
C[C@@H](Nc1nnc(N2CC3(CC(O)C3)C2)c2cc(=O)n(C3(C)CC3)cc12)c1cccc(C(F)F)c1F [Example 196, (R)-4-((1-(3-(difluoromethyl)-2-fluorophenyl)ethyl)amino)-1-(6-hydroxy-2-azaspiro[3.3]heptan-2-yl)-6-(1-methylcyclopropyl) pyrido[3,4-d]pyridazin-7(6H)-one] | 3.7
Cc1c(C#N)cccc1[C@@H](C)Nc1nnc(N2CCN(C(C)C)CC2)c2cc(=O)n(C3CCN(C)CC3)cc12 [Example 132, (R)-3-(1-((1-(4-isopropylpiperazin-1-yl)-6-(1-methylpiperidin-4-yl)-7-oxo-6,7-dihydropyrido[3,4-d]pyridazin-4-yl)amino)ethyl)-2-methylbenzonitrile] | 16.6
C[C@@H](Nc1nnc(N(C)CCN(C)C)c2cc(=O)n(C3(C)CC3)cc12)c1cccc(C(F)F)c1F [Example 124, (R)-4-((1-(3-(difluoromethyl)-2-fluorophenyl)ethyl)amino)-1-((2-(dimethylamino)ethyl)(methyl)amino)-6-(1-methylcyclopropyl) pyrido[3,4-d]pyridazin-7(6H)-one formate] | 5.8
